Test results from publication PMC2632761 (Journal of biomolecular screening, 2009).
Like-named read-outs stand apart in the source and are kept apart here.

What was measured:
hPPARγ = target: T1, hPPARγ (Homo sapiens, UniProt P37231); assay: PPARγ SPA ligand competition binding assay
T1 sequence (P37231 238-503 limits assumed): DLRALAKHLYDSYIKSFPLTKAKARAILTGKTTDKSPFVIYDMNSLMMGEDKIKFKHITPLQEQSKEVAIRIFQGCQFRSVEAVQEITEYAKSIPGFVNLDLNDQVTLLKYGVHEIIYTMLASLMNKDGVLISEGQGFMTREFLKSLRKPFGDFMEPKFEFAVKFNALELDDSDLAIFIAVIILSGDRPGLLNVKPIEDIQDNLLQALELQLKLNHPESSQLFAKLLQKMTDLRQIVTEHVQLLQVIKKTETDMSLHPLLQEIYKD

[1] = target: T2, AR-LBD (androgen receptor) (Pan troglodytes, UniProt O97775); assay: AR SPA ligand competition binding assay
T2 sequence (O97775 655-911 limits assumed): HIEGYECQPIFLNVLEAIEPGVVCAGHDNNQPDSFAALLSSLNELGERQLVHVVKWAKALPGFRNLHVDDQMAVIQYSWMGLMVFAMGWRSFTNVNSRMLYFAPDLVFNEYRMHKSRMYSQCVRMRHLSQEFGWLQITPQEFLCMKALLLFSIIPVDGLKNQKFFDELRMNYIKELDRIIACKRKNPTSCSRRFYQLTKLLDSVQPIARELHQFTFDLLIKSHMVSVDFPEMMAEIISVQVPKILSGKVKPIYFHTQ

hTRα = target: T3, hTRα (Homo sapiens, UniProt P10827); assay: TRα SPA ligand competition binding assay
T3 sequence (P10827 148-410 isoform P10827-2 limits assumed): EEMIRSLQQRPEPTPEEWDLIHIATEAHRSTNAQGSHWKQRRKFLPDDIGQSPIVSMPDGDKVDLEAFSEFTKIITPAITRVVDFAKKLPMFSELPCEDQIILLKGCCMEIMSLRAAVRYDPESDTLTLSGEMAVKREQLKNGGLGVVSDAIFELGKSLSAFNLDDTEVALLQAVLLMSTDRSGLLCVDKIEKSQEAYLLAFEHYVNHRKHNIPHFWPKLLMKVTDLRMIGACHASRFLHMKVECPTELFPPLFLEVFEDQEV

hTRβ = target: T4, hTRβ (Homo sapiens, UniProt P10828); assay: TRβ SPA ligand competition binding assay
T4 sequence (P10828 217-461 limits assumed): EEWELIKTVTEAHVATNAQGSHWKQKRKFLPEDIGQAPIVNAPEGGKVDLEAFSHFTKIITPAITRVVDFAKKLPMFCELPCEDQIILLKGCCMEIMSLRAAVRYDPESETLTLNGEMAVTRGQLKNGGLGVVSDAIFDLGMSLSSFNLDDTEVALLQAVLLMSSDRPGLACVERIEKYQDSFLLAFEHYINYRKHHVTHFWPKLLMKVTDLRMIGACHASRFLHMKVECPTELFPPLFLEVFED

Work on `CCCCC/C=C\C/C=C\C/C=C\C/C=C\CCCC(=O)O` [Arachidonic Acid] yielded an IC50 (hPPARγ) of 4.2 ± 0.53 µM.

In the case of `O=C(Nc1ccccc1)c1cc([N+](=O)[O-])ccc1Cl` [GW9662], the IC50 (hPPARγ; read-out: IC50 PPARγ, SPA competition, 40 nM [3H]-Rosiglitazone) is reported as 0.23 ± 0.02 µM.

`CC(C)(O)C(=O)Nc1ccc([N+](=O)[O-])c(C(F)(F)F)c1` [Hydroxyflutamide] was tested, and the IC50 [1] was 33 ± 8 µM.

Compound `CCCCC/C=C\C/C=C\CCCCCCCC(=O)O` [Lineolic Acid] has an IC50 (hPPARγ) of 3.8 ± 0.49 µM.

With `C[C@]1(O)CC[C@H]2[C@@H]3CCC4=CC(=O)CCC4=C3C=C[C@@]21C` [Methyltrienolone (R1881), Methyltrienolone] the IC50 ([1]; IC50 AR) was 0.11 ± 0.02 µM.

`O=C(O)c1cc(I)c(Oc2ccc(O)c(I)c2)c(I)c1` [T3Bz, 4-(4'-Hydroxy-3'-iodophenoxy)-3,5-diiodo-benzoic acid] gave an IC50 (hTRα) of 12 ± 2 µM and an IC50 (hTRβ) of 10 ± 4 µM.

Work on `O=C(O)Cc1cc(I)c(Oc2cc(I)c(O)c(I)c2)c(I)c1` [T4Ac, 3,3’,5,5’-tetraiodothyroacetic acid] yielded an IC50 (hTRα; read-out: IC50 TRα, SPA competition, 1 nM [125I]-T3) of 10 ± 2 µM and an IC50 (hTRβ; read-out: IC50 TRβ, SPA competition, 1 nM [125I]-T3) of 5 ± 2 µM.
